Results as given in publication PMC8307404, “Crystal Structure-Guided Design of Bisubstrate Inhibitors and Photoluminescent Probes for Protein Kinases of the PIM Family” (Molecules, 2021).
Values joined by “and” are separate entries in the source; they are usually repeats but may differ in a detail not shown here. Identical values can stand only once. Square brackets hold non-standard residues; d marks the D form. Peptide text beside a SMILES is read from it. * marks the point of attachment. X7 = Nc1nccc(-c2ccc(C(=O)*)s2)n1; Ahx = NCCCCCC(=O)O

Experiments:
[1] = molecular target: endoprotease furin; design: method as in PMID 26110264; conditions: cited from earlier work
[2] = molecular target: T1, PIM3 (Homo sapiens, UniProt Q86V86); experiment: Thermal shift assay; assay type: binding; design: made in house; conditions: 2 μM kinase, 12.5 μM compound; mean ± SEM, N = 2
Protocol: (§1) Thermal shift assay measurements were performed following the previously published protocol [61] using a real-time PCR instrument (Mx3005p RT-PCR, Stratagene; La Jolla, California). […] The measurements were carried out in PCR low-profile microplate wells (ABgene; Portsmouth, NH, USA). The temperature scan was run from 25 to 95 °C at 1 °C/min. GraphPad Prism v. 6.0 (GraphPad Software, Inc.; San Diego, CA, USA) and Microsoft Excel v. 2007 (Microsoft Office; Redmond, WA, USA) were used for data processing and analysis.

[3] = molecular target: T2, PIM1 (Homo sapiens, UniProt P11309); experiment: Thermal shift assay; assay type: binding; design: made in house; conditions: 2 μM kinase, 12.5 μM compound; mean ± SEM, N = 2
T2 sequence (P11309 whole entry): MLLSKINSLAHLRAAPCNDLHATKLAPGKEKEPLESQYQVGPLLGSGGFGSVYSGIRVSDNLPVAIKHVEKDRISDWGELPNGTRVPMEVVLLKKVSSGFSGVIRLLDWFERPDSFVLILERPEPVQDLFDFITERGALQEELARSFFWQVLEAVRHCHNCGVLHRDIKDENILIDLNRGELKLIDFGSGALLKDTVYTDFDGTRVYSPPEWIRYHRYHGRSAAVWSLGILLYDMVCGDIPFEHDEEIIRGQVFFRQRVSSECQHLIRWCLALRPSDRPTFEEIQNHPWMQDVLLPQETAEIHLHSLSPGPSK
Protocol: as §1

[4] = molecular target: T3, PIM2 (Homo sapiens, UniProt Q9P1W9); experiment: Thermal shift assay; assay type: binding; design: made in house; conditions: 2 μM kinase, 12.5 μM compound; mean ± SEM, N = 2
T3 sequence (Q9P1W9 whole entry): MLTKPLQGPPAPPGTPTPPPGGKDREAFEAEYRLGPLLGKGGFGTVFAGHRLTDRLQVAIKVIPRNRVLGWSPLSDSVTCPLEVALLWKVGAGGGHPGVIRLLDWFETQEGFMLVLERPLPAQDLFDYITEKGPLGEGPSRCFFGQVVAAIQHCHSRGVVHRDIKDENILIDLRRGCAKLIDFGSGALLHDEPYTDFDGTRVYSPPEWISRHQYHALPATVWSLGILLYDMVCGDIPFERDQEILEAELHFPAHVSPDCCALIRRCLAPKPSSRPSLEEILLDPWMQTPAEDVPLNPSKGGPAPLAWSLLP
Protocol: as §1

[5] = molecular target: T4, PKAcα (Homo sapiens, UniProt P17612); experiment: Binding/displacement assay with FA or TGLI readout; conditions: TGLI or FA readout; mean ± SEM, N = 2; read-out: KD, nM (PKAcα)
T4 construct: purchased Biaffin GmbH & Co KG (Kassel, Germany)
Protocol: The affinities of the compounds toward the PIM family PKs were determined in a binding/displacement assay with measurement of fluorescence anisotropy (FA) and time-gated luminescence intensity (TGLI) (Table 2). For the initial assessment of the selectivity of compounds, PKAcα was used as the reference basophilic kinase.
Optical FA measurement modules for 5-TAMRA-labeled compounds (ex. 540(20) nm, em. 590(20) nm and 590(20) nm), for Cy5-labeled compounds (ex. 590(50) nm, em. 675(50) nm and 675(50) nm), and optical TGLI measurement modules for ARC-1451 (ex. 330(60) nm, em. 590(50) nm), for ARC-1188 (ex. 330(60) nm, em. 675(50) nm) were used for assays with PHERAstar microplate reader (BMG Labtech; Ortenberg, Germany). TGLI measurements were performed with a delay time of 50 μs and integration of the signal for 150 μs. In each measurement, emission from 200 flashes of excitation radiation was collected. The measurement solutions (20 µL volumes) were prepared in black 384-well low-binding surface microtiter plates (Corning #4514; Kennebunk, ME, USA) and incubated for 20 min at 30 °C before the measurements. The assay buffer contained HEPES hemisodium salt (pH 7.4, 50 mM), NaCl (150 mM), dithiothreitol (5 mM), bovine serum albumin (0.5 mg/mL), and Tween-20 (0.005%). GraphPad Prism v. 5.04 (GraphPad Software, Inc.) was used for data analysis with FA [32] or TGLI [33] readouts. Representative titration curves can be found in Supplementary Figure S7.

[6] = molecular target: T2, PIM1; experiment: Binding/displacement assay with FA or TGLI readout; design: made in house
Protocol: (§2) The affinities of the compounds toward the PIM family PKs were determined in a binding/displacement assay with measurement of fluorescence anisotropy (FA) and time-gated luminescence intensity (TGLI) (Table 2). For the initial assessment of the selectivity of compounds, PKAcα was used as the reference basophilic kinase [10].
(§3) Optical FA measurement modules for 5-TAMRA-labeled compounds (ex. 540(20) nm, em. 590(20) nm and 590(20) nm), for Cy5-labeled compounds (ex. 590(50) nm, em. 675(50) nm and 675(50) nm), and optical TGLI measurement modules for ARC-1451 (ex. 330(60) nm, em. 590(50) nm), for ARC-1188 (ex. 330(60) nm, em. 675(50) nm) were used for assays with PHERAstar microplate reader (BMG Labtech; Ortenberg, Germany). TGLI measurements were performed with a delay time of 50 μs and integration of the signal for 150 μs. In each measurement, emission from 200 flashes of excitation radiation was collected. The measurement solutions (20 µL volumes) were prepared in black 384-well low-binding surface microtiter plates (Corning #4514; Kennebunk, ME, USA) and incubated for 20 min at 30 °C before the measurements. The assay buffer contained HEPES hemisodium salt (pH 7.4, 50 mM), NaCl (150 mM), dithiothreitol (5 mM), bovine serum albumin (0.5 mg/mL), and Tween-20 (0.005%). […] 5.04 (GraphPad Software, Inc.) was used for data analysis with FA [32] or TGLI [33] readouts.

[7] = molecular target: T1, PIM3; experiment: Binding/displacement assay with FA or TGLI readout; design: made in house; conditions: mean ± SEM, N = 2
Protocol: as §2, §3

[8] = molecular target: T3, PIM2; experiment: Binding/displacement assay with FA or TGLI readout; design: made in house; conditions: mean ± SEM, N = 2
Protocol: as §2, §3

[9] = molecular target: T5, PIM-1-TagRFP (Homo sapiens, UniProt P11309); experiment: Co-localization study, TIRF microscopy; assay type: cell-based; conditions: live U2OS cells, 48 h transfection, 1 h incubation with 2.5 or 5 μM probe
T5 construct: expressed in transfected cells; host or cells: U2OS (human osteosarcoma), transient, 48 h, FuGENE HD
T5 sequence (P11309 whole entry): as the sequence (P11309 whole entry) above

[10] = tested on: U2OS cells; experiment: Cellular uptake of fluorescent probes, live-cell microscopy; assay type: cell-based, human; conditions: 1–5 μM, 10–60 min
Protocol: For studies of the general internalization properties of ARCs, the cells were seeded at the density of 12,000–25,000 cells per well onto an Ibidi μ-plate (96-well; Ibidi GmbH, Planegg, Germany). After 24 h incubation in growth medium, the cells were treated for 10 min, 30 min, or 1 h with dilutions of compounds 6, 7, 8, or ARC-2090 (5 μM, 2.5 μM, or 1 μM final concentration) in the phenol red-free DMEM/Ham’s F12 medium supplemented with 2% ccFBS and 2 mM glutamine. Next, cells were washed twice with PBS, and imaging medium (MEMO + Supplement A 1:100) was applied subsequently. Cells were imaged with Cytation 5 wide-field microscope (BioTek; Winooski, VT, USA) using 20× air objective and the following settings: for Cy5, 623 nm LED (intensity: 2) and Cy5 filter cube (685 nm) with 104 ms integration time and detector gain value of 2; for TAMRA, 523 nm LED (intensity: 7) and RFP filter cube (593 nm) with 252 ms integration time and detector gain value of 16; for bright-field, white LED with intensity 6, 186 ms integration time and detector gain value of 15. Four independent experiments were performed.

[11] = KD, nM (PIM-1), TGLI or FA readout, mean ± SEM, N = 2

Row | Kd [5] | Kd [6, 11] | Kd [7] | Kd [8] | Compound | further results
1 | – | – | – | – | (D-Arg)9-NH2 | Kd [1]: 1.3 nM
2 | – | – | – | – | C[C@@H](NC(=O)CCCCCNC(=O)c1ccc(-c2ccnc(N)n2)s1)C(=O)N[C@H](CCCNC(=N)N)C(=O)N[C@H](CCCNC(=N)N)C(=O)N[C@H](CCCNC(=N)N)C(=O)N[C@H](CCCNC(=N)N)C(=O)N[C@H](CCCNC(=N)N)C(=O)N[C@H](CCCNC(=N)N)C(=O)N[C@H](CCCCN)C(=O)NCC(=O)O [ARC-1141, AMTH-Ahx-D-Ala-(D-Arg)6-D-Lys-Gly] ({X7-Ahx}-[dA][dR][dR][dR][dR][dR][dR][dK]G-OH) | ∆Tm, °C PIM-3 [2]: 4.9 ± 0.4 °C; ∆Tm, °C PIM-1 [3]: 5.2 ± 0.4 °C; ∆Tm, °C PIM-2 [4]: 5.9 ± 0.6 °C
3 | – | – | – | – | CN1CCC(CNc2ccc3ncc(-c4cccc(OC(F)(F)F)c4)n3n2)CC1 [SGI-1776, reference compound] | ∆Tm, °C PIM-3 [2]: 8.2 ± 0.3 °C; ∆Tm, °C PIM-1 [3]: 9.5 °C and 9.5 ± 0.4 °C; ∆Tm, °C PIM-2 [4]: 8.1 ± 0.6 °C
4 | – | – | – | – | BBTP-Hyp-Ahx-(D-Arg)9-D-Lys-NH2 [ARC-3119] | ∆Tm, °C PIM-3 [2]: 11.9 ± 0.2 °C; ∆Tm, °C PIM-1 [3]: 13.7 ± 0.4 °C; ∆Tm, °C PIM-2 [4]: 13.9 ± 0.6 °C
5 | > 89000 nM | > 11500 nM | > 16400 nM | > 46000 nM | N=C(N)NCCC[C@@H](N)C(=O)N[C@H](CCCNC(=N)N)C(=O)NCC(=O)N[C@H](CCCNC(=N)N)C(=O)N[C@H](CCCCN)C(N)=O [PIM peptide, (D-Arg)2-Gly-D-Arg-D-Lys-NH2] | Kd ([6]; KD toward PIM-1, as worded in text): > 10000 nM
6 | > 18200 nM | 1.8 ± 0.3 nM | 6.6 ± 1.4 nM | 20 ± 4 nM | N=C(N)NCCC[C@@H](NC(=O)CNC(=O)[C@@H](CCCNC(=N)N)NC(=O)[C@@H](CCCNC(=N)N)NC(=O)CCCCc1cn(Cc2nc3c(sc4ccc(Br)cc43)c(=O)[nH]2)nn1)C(=O)N[C@H](CCCCN)C(N)=O [Compound 4, BBTP-Tap-(D-Arg)2-Gly-D-Arg-D-Lys-NH2] | fold higher selectivity as compared to compound 3 ([6]; PIM-1 vs PKAcα): over 5 fold
7 | > 1080 nM | 21.9 ± 4 nM | 8.3 ± 1 nM | 28.2 ± 6.7 nM | CN1C(=CC=CC=CC2=[N+](CCCCCC(=O)NCCCC[C@@H](NC(=O)[C@@H](CCCNC(=N)N)NC(=O)CNC(=O)[C@@H](CCCNC(=N)N)NC(=O)[C@@H](CCCNC(=N)N)NC(=O)CCCCc3cn(Cc4nc5c(sc6ccc(Br)cc65)c(=O)[nH]4)nn3)C(N)=O)c3ccccc3C2(C)C)C(C)(C)c2ccccc21 [Compound 7, BBTP-Tap-(D-Arg)2-Gly-D-Arg-[D-Lys(Cy5)]-NH2] | Manders' coefficient, co-localization with PIM-1-TagRFP [9]: 0.43 ± 0.16; ability to cross the plasma membrane / internalization [10]: efficiently internalized into the cells
8 | > 303 nM | 1.7 ± 0.4 nM | 2.6 ± 0.3 nM | 5.2 ± 0.9 nM | CN1C(=CC=CC=CC2=[N+](CCCCCC(=O)NCCCC[C@@H](NC(=O)[C@@H](CCCNC(=N)N)NC(=O)CNC(=O)[C@@H](CCCNC(=N)N)NC(=O)[C@@H](CCCNC(=N)N)NC(=O)CCCCCCCNCc3nc4c(sc5ccc(Br)cc54)c(=O)[nH]3)C(N)=O)c3ccccc3C2(C)C)C(C)(C)c2ccccc21 [Compound 6, BBTP-Aoc-(D-Arg)2-Gly-D-Arg-[D-Lys(Cy5)]-NH2] | Manders' coefficient, co-localization with PIM-1-TagRFP [9]: 0.72 ± 0.06; ability to cross the plasma membrane / internalization [10]: efficiently internalized into the cells
9 | – | – | – | – | (D-Arg)6-NH2 | Kd [1]: 106 nM
10 | > 83000 nM | – | – | – | N[C@@H]1CCCN(c2c(/C=C3\SC(=O)NC3=O)cccc2-c2ccccc2)C1 [AZD1208, reference compound] | –
11 | > 20600 nM | 37.8 ± 9 nM | 30.4 ± 6.5 nM | 447 ± 52 nM | N=C(N)NCCC[C@@H](NC(=O)CNC(=O)[C@@H](CCCNC(=N)N)NC(=O)[C@@H](CCCNC(=N)N)NC(=O)CCCCCCCNC(=O)[C@@H]1C[C@@H](O)CN1Cc1nc2c(sc3ccc(Br)cc32)c(=O)[nH]1)C(=O)N[C@H](CCCCN)C(N)=O [Compound 5, BBTP-Hyp-Aoc-(D-Arg)2-Gly-D-Arg-D-Lys-NH2] | fold lower selectivity toward PIM-1 than compound 2 ([6]; PIM-1 vs PKAcα): over 4 fold
